Assay: gradient 5% acetonitrile 3 min, to 50% in 2 min, to 85% in 15 min, held 3 min, 100 µL/min
Conditions: column: Zorbax Extend-C18 2.1 x 50 mm; eluents: water / acetonitrile, 0.1% formic acid
Procedure, shortened: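 The system's dead and dwell volumes were 40 μL and 900 μL, with a Zorbax Extend-C18 column (2.1 × 50 mm, 1.8 μm) run at 100 μL/min in water and acetonitrile containing 0.1% formic acid each. Pure standards were analyzed in mixtures of ~100 molecules by HPLC–quadrupole time-of-flight mass spectrometry in positive and negative ionization mode. Retention time was assigned from computationally picked, manually inspected adduct peaks.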

RP-LC retention time	SMILES
809 s	Cc1cc(C)c(C(=O)N2CCCC(C(=O)NC3CCCCC3)C2)[nH]1 (centres undefined)
939 s	Cn1cccc1C(=O)C(=O)NCCc1ccc(Cl)cc1
673 s	O=C(NC1CC1)c1ccc2c(c1)CCN2C(=O)C1CC1
879 s	O=C(NCc1ccc(-c2noc(Cc3cccc(F)c3)n2)s1)C1CC1
765 s	COCCN1CC2(CCN(S(=O)(=O)c3ccc(C)c(Cl)c3)CC2)C1c1ccccc1 (centres undefined)
675 s	Nc1nc(SCCc2ccccc2)c2[nH]cnc2n1
635 s	COc1ccc(NC(=O)N2CCC(c3nc(C(=O)N(C)C)c(C)o3)CC2)cc1OC
1020 s	CCN1C(=O)c2ccccc2Oc2ccc(C(=O)N3CCN(c4cccc(C)c4)C(C)C3)cc21 (centres undefined)
695 s	CCOC(=O)C1=C(CN2CCCC(c3ccccc3)C2)NC(=O)NC1c1cccc(OC)c1OC (centres undefined)
756 s	CCOc1ccc(C(=O)N2CCC(n3c(-c4ccoc4)nc4cccnc43)C2)cc1 (centres undefined)
1020 s	COc1ccc(-c2cc3c(=O)n(Cc4nc(-c5ccc(OC)cc5OC)oc4C)ccn3n2)cc1
973 s	CC(C)CNC(=O)c1nnn2c1COC(c1ccc(Br)cc1)C2 (centres undefined)
611 s	Cc1ccc2oc(C(=O)N3CCC(CCN4CCCCC4)CC3)cc(=O)c2c1
681 s	CCN(CC)S(=O)(=O)c1ccc2c(c1)N(CC(=O)NC1CC1)C(=O)C1CCCCN21 (centres undefined)
732 s	CCOC(=O)N1CCN(C(=O)Nc2cccc(Cl)c2)CC1
603 s	Cc1nc(CCNS(=O)(=O)c2cccnc2)no1
897 s	Cc1nc(-c2ccc3c(c2)n(CC(=O)NC2CCC(C)CC2)c(=O)n3C(C)C)no1 (centres undefined)
688 s	CC(C)c1ccc(C(=O)NCC(=O)Nc2nc3ccccc3[nH]2)cc1
629 s	COc1ccc(C(=O)N2C[C@@H]3C[C@H](NS(C)(=O)=O)[C@H]2C3)c(C)c1
670 s	O=C(Cn1cnc2nc(N3CCC(C(=O)NC4CC4)CC3)sc2c1=O)NC1CCc2ccccc21 (centres undefined)
898 s	O=C(Cn1nc(N2CCOCC2)c2ccccc2c1=O)Nc1ccc(C(F)(F)F)cc1
1060 s	O=C(NCc1ccco1)C1CCN(c2ncccc2-c2nc(-c3cccc(Cl)c3)no2)CC1
1050 s	CCOc1cccc(-c2noc(Cn3c(=O)n(-c4ccc(F)cc4)c(=O)c4sccc43)n2)c1

RP-LC retention time	SMILES
628 s	CCCNC(=O)C1CCCN(c2ccc(SCC(=O)Nc3c(F)cccc3F)nn2)C1 (centres undefined)
584 s	CC(Oc1ccccc1)C(=O)N1CC(n2ccnc2)C1 (centres undefined)
644 s	CCn1cc(CCN2CCC(C(=O)Nc3ccc(C)cc3)CC2)c2cccnc21
819 s	O=C(c1ccsc1)N1CCCC1(CO)Cc1ccccc1 (centres undefined)
1160 s	CCOc1ccc(-c2cc3c(=O)n(Cc4nc(-c5ccccc5Br)no4)ncn3n2)cc1
591 s	CN(C)CCNC(=O)c1ccc(CS(=O)c2ccc(Cl)cc2)o1 (centres undefined)
945 s	COc1ccc(NC(=O)N2CCCn3nc(-c4cccc(Cl)c4)cc3C2)cc1F
753 s	COc1cc(CN2C[C@@H]3C(=O)N(CCc4ccccc4)C(=O)[C@@H]3C2)cc(OC)c1
866 s	CCOC(=O)c1c(C)[nH]c(C(=O)N2CCCC(C(=O)NCCc3ccc(OCC)cc3)C2)c1C (centres undefined)
969 s	CN(C)S(=O)(=O)c1ccc(-c2nnc(C(=O)NCc3cccc(Cl)c3)o2)cc1
793 s	O=C(CSc1nnc(-c2ccccc2)o1)Nc1nsc(-c2ccccc2)n1
573 s	NC(=O)Cn1c(CNC(=O)c2ccccc2)nc2ccccc21
649 s	Cn1nc2n(c1=O)CCN(S(=O)(=O)c1cccc3cccnc13)CC2
990 s	Cc1ccc(CN2CCN(C3CCN(S(=O)(=O)c4ccc(C)c(Cl)c4)CC3)C(=O)C2=O)cc1
621 s	CCn1cc(CCN2CCC(C(=O)Nc3ccccc3C)CC2)c2cccnc21
764 s	CC(C)C(=O)Nc1ccc2c(c1)Sc1ncccc1C(=O)N2C(C)C
667 s	NC(=O)c1ccccc1NC(=O)NC1CC(=O)N(c2ccc(Cl)cc2)C1 (centres undefined)
781 s	O=C(CCC1CCN(S(=O)(=O)c2cccc(F)c2)CC1)NC1CC1
678 s	Cc1ccc(F)c(NS(=O)(=O)c2cc(-c3[nH]ncc3C(=O)N3CCOCC3)oc2C)c1
1070 s	Cc1ccc(C)c(NC(=O)C2CCN(S(=O)(=O)c3ccc4c(c3)sc(=O)n4C(C)C)CC2)c1
703 s	Cc1cc(=O)n(CC(=O)N2CCCc3ccccc32)c(N2CCCCC2)n1
662 s	O=C(Nc1nc(-c2cccnc2)cs1)C(c1ccccc1)n1cccc1 (centres undefined)
593 s	CCOCCCNC(=O)N1CCN(Cc2nc3cc(C(=O)NC(C)C)ccc3n2C)CC1

RP-LC retention time	SMILES
637 s	O=c1[nH]cc(S(=O)(=O)NC2CC3CCC2C3)c(=O)[nH]1 (centres undefined)
937 s	COc1cc(Cc2nc(-c3cccc(-c4ccn[nH]4)c3)no2)cc(OC)c1
828 s	CCOC(=O)c1[nH]c(C)c(CCC(=O)N2CCC(C(=O)NCc3ccc(Cl)cc3)CC2)c1C
588 s	Cc1nc2c(c(N3CCSCC3)n1)CCC2
1130 s	Brc1cccc(-c2nc3cnccn3c2NC2CCCCC2)c1
909 s	Cc1c(CCOC(=O)c2ccc([N+](=O)[O-])cc2)sc[n+]1Cc1ccccc1
1320 s	CCN(C(=O)Cc1ccccc1)c1nc(-c2ccc(C)cc2)cs1
896 s	COCc1nc(-c2ccc(OC3CCN(C(=O)C4(c5ccc(OC)cc5)CC4)C3)cc2)no1 (centres undefined)
782 s	Cc1ccc(NC(=O)N2CCCC2c2cc(C)no2)cc1 (centres undefined)
934 s	COc1ccc(Cl)cc1NC(=O)CSc1ccc(-c2ccccn2)nn1
1070 s	Cc1nc2cc(-c3noc(-c4cc(F)ccc4F)n3)ccc2o1
705 s	CN(C)C(=O)c1ccc2c(c1)N(CC(=O)Nc1ccccc1Cl)C(=O)CS2
645 s	O=C(CCCn1c(=O)c2cccn2c2ccc(F)cc21)NCCCN1CCCCCC1
856 s	CN1C(=O)COc2ccc(-c3csc(NC(=O)C(C)(C)C)n3)cc21
834 s	c1ccc(CN2CCC3(CCCc4ccccc43)CC2)cc1
1080 s	CC(=O)SCC(Cc1ccccc1)C(=O)NCC(=O)OCc1ccccc1 (centres undefined)
934 s	CCCCNC(=O)C(CC)n1nc(C)c2nn(-c3ccccc3)c(C)c2c1=O (centres undefined)
1070 s	CC(C)c1ccc(NC(=O)Cn2nc(N3CCSCC3)c3ccccc3c2=O)cc1
837 s	CCCCNC(=O)CCC(=O)N1CC2CCCN2c2ccccc21 (centres undefined)
644 s	CC(C)CNC(=O)c1ccc2nc(CCc3ccc(NC(=O)C(C)C)cc3)[nH]c2c1
619 s	Cc1ccc2c(=O)c3c([nH]c2c1C)CCN(CC(=O)NC1CCCCC1)C3
788 s	CCc1cccc(-n2nnc(C(=O)O)c2CC)c1
972 s	COc1ccc(-c2noc(Cc3nnc(-c4ccc(F)cc4)o3)n2)cc1

RP-LC retention time	SMILES
605 s	CCOC(=O)c1[nH]c2ccc(F)cc2c1NC(=O)CN(CC)CC
1080 s	CCOC(=O)c1c(NC(=O)CN2CCN(c3ncccn3)CC2)sc2c1CCC2
718 s	COCCN1CC2(CCN(S(=O)(=O)c3cc(F)cc(F)c3)CC2)C1c1ccccc1 (centres undefined)
863 s	CCCNC(=O)c1c(C)sc2ccn(Cc3ccc(F)cc3)c(=O)c12
917 s	CCOc1ccc(C2Cn3nnc(-c4nc(C)no4)c3CO2)cc1 (centres undefined)
930 s	Cc1ccc(NC(=O)C2CCCN(c3ncnc4c3nc3n4CCCCC3)C2)c(Br)c1 (centres undefined)
800 s	COCCn1cc(CCNC(=O)Nc2cc(F)c(F)c(F)c2)c2cccnc21
722 s	O=c1ccc(-c2nc(-c3cccc(Cl)c3)no2)cn1Cc1ccncc1
671 s	COc1cccc(CNC(=O)Cn2ncc3c(c2=O)N(C2CC2)C(=O)CS3)c1
1310 s	CC(C)(C)c1ccc(S(=O)(=O)N2CCCC2c2nc(-c3ccc(F)cc3)no2)cc1 (centres undefined)
794 s	CNC(=O)Nc1ccc(-c2nc(N3CC4CCC(C3)O4)c3cnn(C4CCC5(CC4)OCCO5)c3n2)cc1
710 s	Cc1ccc(CNC(=O)C2CCN(c3nnc(C)c4c(C)n(-c5ccccc5)nc34)CC2)o1
893 s	COc1ccc(-c2nnc(COc3ccc(NC(=O)c4cncc(Br)c4)cc3)o2)cc1
772 s	O=C(NCCc1ccco1)c1ccc2ccnc(N3CCN(c4ccccc4)CC3)c2c1
943 s	COc1ccc(OC)c(NC(=O)N2CCc3cn(C)c4cccc(c34)C2)c1
674 s	CCOC(=O)c1c(S(=O)(=O)N2CCC(C(=O)NCC3CCCO3)CC2)c(C)n(C)c1C (centres undefined)
937 s	COc1ccc(NC(=O)Cn2ccc3ccc(-c4nnc(C)o4)cc32)cc1
1090 s	COC(=O)C1C(c2ccccc2)=NN(c2ccccc2)C1C(=O)OC (centres undefined)
579 s	COc1ccc(CC(=O)NCC2CCC(c3nc4ccccc4n3C)CC2)cc1 (centres undefined)
1280 s	CCCCn1cc(S(=O)(=O)N2CCN(c3ccccc3C)CC2)c2cccnc21

Reference: the METLIN SMRT retention time set (Domingo-Almenara et al. 2019)
